Laboratory results taken from US20240350489A1, “LOU064 FOR TREATING MULTIPLE SCLEROSIS” (NOVARTIS AG, priority 2021, published 2024).
“Also recorded” adds a separate entry of the source. Like-named read-outs stand apart in the source and are kept apart here.

What was measured:
Format in all cases: in vivo
[1] = Levels of LOU064 in mouse tissues (blood, brain, CSF); details: for concentration at 1 h / concentration at 5 h / concentration at 8 h: C57BL/6, mouse, oral
Description: The compound levels in total brain homogenate are very low and mainly detectable at the early timepoint. Similarly, the levels in cerebrospinal fluid (CSF) are low.
Blood, brain and CSF levels of LOU064 after oral dosing of 3 and 30 mg/kg b.i.d. The LLOQ were 0.2 nM in blood, […] in brain homogenate and 0.5 nM in CSF. Shown are averages ±SD from 4 animals for the 1 h timepoints and from 3 animals for the 5 and 8 h timepoints. Where denoted with ^a, the values were derived from one animal of three that was above the LLOQ.

BTK [2] = biological target: T1, BTK (Homo sapiens, UniProt Q06187); assay: BTK occupancy in blood as biomarker for dose selection; details: low doses
T1 construct: simulate BTK occupancy in human spleen/tissues across a range of doses; from tissue; host or cells: human spleen / peripheral tissues (simulated, not sampled)
T1 sequence (Q06187 whole entry): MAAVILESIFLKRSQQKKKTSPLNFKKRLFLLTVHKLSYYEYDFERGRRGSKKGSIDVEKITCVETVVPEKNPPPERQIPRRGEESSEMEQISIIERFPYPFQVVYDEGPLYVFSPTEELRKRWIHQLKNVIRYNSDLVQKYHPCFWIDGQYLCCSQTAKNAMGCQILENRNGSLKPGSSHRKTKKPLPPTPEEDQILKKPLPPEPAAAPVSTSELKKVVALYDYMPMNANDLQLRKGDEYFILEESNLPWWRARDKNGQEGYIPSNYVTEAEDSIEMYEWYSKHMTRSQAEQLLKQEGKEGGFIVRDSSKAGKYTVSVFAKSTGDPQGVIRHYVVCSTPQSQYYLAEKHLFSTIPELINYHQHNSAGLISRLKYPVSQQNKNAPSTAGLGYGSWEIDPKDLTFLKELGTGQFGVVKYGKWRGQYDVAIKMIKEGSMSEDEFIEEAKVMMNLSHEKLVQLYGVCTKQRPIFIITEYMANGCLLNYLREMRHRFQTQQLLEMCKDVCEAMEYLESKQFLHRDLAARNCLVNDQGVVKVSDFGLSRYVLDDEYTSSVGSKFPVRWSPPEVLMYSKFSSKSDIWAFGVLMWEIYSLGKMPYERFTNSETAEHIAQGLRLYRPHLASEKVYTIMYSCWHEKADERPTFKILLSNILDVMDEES
Excerpt: BTK occupancy in blood is not an informative biomarker for the purpose of dose selection due to LOU064 pharmacological properties (irreversible binding). […] Occupancy in tissue may be more representative of the efficacy of LOU064.

BTK [3] = biological target: T2, BTK (Mus musculus, UniProt P35991); assay: Trough BTK occupancy in spleen, blood and brain, RatMOG EAE; details: 30 mg/kg b.i.d., 16 h after the last dose
T2 construct: BTK occupancy was assessed in brain homogenates that had been prepared for compound exposure analysis; from tissue; host or cells: spleen, inguinal lymph nodes, blood and brain homogenate of C57BL/6 EAE mice
T2 sequence (P35991 whole entry): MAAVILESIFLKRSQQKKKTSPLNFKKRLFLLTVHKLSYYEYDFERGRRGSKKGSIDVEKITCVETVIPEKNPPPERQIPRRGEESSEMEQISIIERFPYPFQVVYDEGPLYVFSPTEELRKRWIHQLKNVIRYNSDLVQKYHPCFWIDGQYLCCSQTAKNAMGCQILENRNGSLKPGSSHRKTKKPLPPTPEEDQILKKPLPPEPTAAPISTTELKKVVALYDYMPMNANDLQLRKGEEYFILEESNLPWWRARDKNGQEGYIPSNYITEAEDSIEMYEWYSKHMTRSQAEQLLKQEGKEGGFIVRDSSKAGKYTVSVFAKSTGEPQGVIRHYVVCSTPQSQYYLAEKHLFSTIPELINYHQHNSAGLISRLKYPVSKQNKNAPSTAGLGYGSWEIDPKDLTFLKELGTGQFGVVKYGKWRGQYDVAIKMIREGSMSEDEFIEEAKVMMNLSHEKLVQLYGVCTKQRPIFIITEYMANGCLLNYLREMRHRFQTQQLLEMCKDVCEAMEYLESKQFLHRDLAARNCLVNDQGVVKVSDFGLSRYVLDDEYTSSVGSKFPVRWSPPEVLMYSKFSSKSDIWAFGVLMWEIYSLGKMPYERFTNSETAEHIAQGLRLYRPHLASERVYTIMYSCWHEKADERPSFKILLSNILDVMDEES

RatMOG-induced EAE = assay: RatMOG-induced EAE, b.i.d. dosing until study end
Description: Dosing of LOU064 was initiated 4 hours prior to MOG/CFA immunization and continued twice daily until study end.

[4] = Co-administration with oral contraceptives; details: co-administered ethinylestradiol or levonorgestrel

## C=CC(=O)N(C)CCOc1c(N)ncnc1-c1cc(F)cc(NC(=O)c2ccc(C3CC3)cc2F)c1C [LOU064, N-(3-(6-amino-5-(2-(N-methylacrylamido)ethoxy)pyrimidin-4-yl)-5-fluoro-2-methylphenyl)-4-cyclopropyl-2-fluorobenzamide]
[1]; 3 mg/kg p.o. b.i.d., 1 h
  Levels of LOU064, Brain: 2.3 ± 2.2 pmol/g
[1]; 3 mg/kg p.o. b.i.d., 5 h
  Levels of LOU064, Brain: <0.5 pmol/g
[1]; 3 mg/kg p.o. b.i.d., 8 h
  Levels of LOU064, Brain: <0.5 pmol/g
[1]; 30 mg/kg p.o. b.i.d., 1 h
  Levels of LOU064, Brain: 13.5 ± 6.0 pmol/g
  Levels of LOU064, CSF: 8.4 ± 3.1 nM
[1]; 30 mg/kg p.o. b.i.d., 5 h
  Levels of LOU064, Brain: 0.7 ± 0.02 pmol/g
[1]; 30 mg/kg p.o. b.i.d., 8 h
  Levels of LOU064, Brain: <0.5 pmol/g
[1]; CSF, 3 mg/kg p.o. b.i.d., 1 h, read-out: Levels of LOU064, CSF
  concentration at 1 h: 3 ± 3.3 nM
[1]; CSF, 3 mg/kg p.o. b.i.d., 5 h, one animal of three above LLOQ, read-out: Levels of LOU064, CSF
  concentration at 5 h: 0.5 nM
[1]; CSF, 3 mg/kg p.o. b.i.d., 8 h, read-out: Levels of LOU064, CSF
  concentration at 8 h: < 0.5 nM
[1]; CSF, 30 mg/kg p.o. b.i.d., 5 h, one animal of three above LLOQ, read-out: Levels of LOU064, CSF
  concentration at 5 h: 0.5 nM
[1]; CSF, 30 mg/kg p.o. b.i.d., 8 h, read-out: Levels of LOU064, CSF
  concentration at 8 h: < 0.5 nM
[1]; whole blood, 3 mg/kg p.o. b.i.d., 1 h, read-out: Levels of LOU064, Blood
  concentration at 1 h: 28.2 ± 11.7 nM
[1]; whole blood, 3 mg/kg p.o. b.i.d., 5 h, read-out: Levels of LOU064, Blood
  concentration at 5 h: 0.4 ± 0.04 nM
[1]; whole blood, 3 mg/kg p.o. b.i.d., 8 h, read-out: Levels of LOU064, Blood
  concentration at 8 h: 0.2 ± 0.07 nM
[1]; whole blood, 30 mg/kg p.o. b.i.d., 1 h, read-out: Levels of LOU064, Blood
  concentration at 1 h: 371 ± 149 nM
[1]; whole blood, 30 mg/kg p.o. b.i.d., 5 h, read-out: Levels of LOU064, Blood
  concentration at 5 h: 19.4 ± 9.9 nM
[1]; whole blood, 30 mg/kg p.o. b.i.d., 8 h, read-out: Levels of LOU064, Blood
  concentration at 8 h: 3.4 ± 2.3 nM
BTK [2]
  BTK occupancy in blood: reaches full occupancy even at low doses
BTK [3]
  BTK occupancy in brain: intermediate levels; also recorded: only partial BTK occupancy in the brain
  BTK occupancy in spleen and blood: in a range indicative of maximal BTK occupancy; also recorded: full BTK occupancy in blood and spleen
RatMOG-induced EAE; 30 mg/kg b.i.d.
  tolerability: well tolerated in all mice
RatMOG-induced EAE; 30 mg/kg b.i.d., p value=0.013
  cumulative disease burden: significantly reduced
RatMOG-induced EAE; 30 mg/kg b.i.d., p value=0.018
  disease incidence and time of EAE onset: reduction in the incidence of EAE and a delayed onset; also recorded: significantly reduced disease incidence
RatMOG-induced EAE; 30 mg/kg p.o. b.i.d.
  clinical symptoms of EAE / EAE scores: inhibited inflammation-induced clinical symptoms of EAE and cachexia; also recorded: efficacious at reducing the severity of RatMOG-induced EAE; also recorded: improvement in EAE scores
  daily body weight changes (cachexia): significantly reduced
[4]
  impact on exposure and efficacy of oral contraceptives: without a major impact on their exposure and efficacy
